Measured values published in PubChem BioAssay AID1259408 (Genetic Toxicology Data Bank (GENE-TOX), 2018).
Calls of active or inactive are those of the source. No rule for the calls is given here. Numbered stars: 1 amine (or outer) side, 2 acyl side, 3 side chain; on linkers, the order of the positions; unused ones are H or OH. Peptide text beside a SMILES is read from it. CO = O=C([*:1])[*:2]

System: GENE-TOX genotoxicity assays, various organisms and cells
Experiment: GENE-TOX mutagenicity studies
Settings: for call: Assay Type: In vivo carcinogenicity studies
[1] = Species/Cell Type: Human, Assay Type: Sister-chromatid exchange (SCE) in vitro, Assay Code: SC1T, Evaluation Type: Evaluation B (Post-1980)
[2] = Species/Cell Type: Salmonella typhimurium (one or more of the five standard strains: TA98, TA100, TA1535, TA1537, and TA1538), Assay Type: Histidine reverse gene mutation, Ames assay, Assay Code: SALT, Evaluation Type: Evaluation A (Pre-1980)
[3] = Species/Cell Type: Salmonella typhimurium (one or more of the five standard strains: TA98, TA100, TA1535, TA1537, and TA1538), Assay Type: Histidine reverse gene mutation, Ames assay, Assay Code: SAL+, Evaluation Type: Evaluation A (Pre-1980)
[4] = Species/Cell Type: Nonhuman, Assay Type: Sister-chromatid exchange (SCE) in vitro, Assay Code: SC2+, Evaluation Type: Evaluation B (Post-1980)
[5] = Species/Cell Type: Salmonella typhimurium (one or more of the five standard strains: TA98, TA100, TA1535, TA1537, and TA1538), Assay Type: Histidine reverse gene mutation, Ames assay, Assay Code: SAL+*, Activation: With metabolic activation, Evaluation Type: Evaluation A (Pre-1980)
[6] = Species/Cell Type: Nonhuman, Assay Type: Sister-chromatid exchange (SCE) in vitro, Assay Code: SC2+D, Dose Response: With dose response, Evaluation Type: Evaluation B (Post-1980)
[7] = Species/Cell Type: Mammalian polychromatic erythrocytes, Assay Type: Micronucleus test, chromosome aberrations, Assay Code: MNTT, Evaluation Type: Evaluation B (Post-1980)
[8] = Species/Cell Type: Escherichia coli WP2, Assay Type: Tryptophan reverse gene mutation, Assay Code: WP2-, Evaluation Type: Evaluation A (Pre-1980)
[9] = Species/Cell Type: Nonhuman, Assay Code: CCG+, Evaluation Type: Evaluation A (Pre-1980)
[10] = Species/Cell Type: Drosophila melanogaster, Assay Type: Sex-linked recessive lethal gene mutation, Assay Code: SRL+, Evaluation Type: Evaluation A (Pre-1980)
[11] = Species/Cell Type: Mammalian polychromatic erythrocytes, Assay Type: Micronucleus test, chromosome aberrations, Assay Code: MNT+, Evaluation Type: Evaluation B (Post-1980)
[12] = Species/Cell Type: Nonhuman, Assay Type: Sister-chromatid exchange (SCE) in vitro, Assay Code: SC2T, Evaluation Type: Evaluation B (Post-1980)
[13] = Species/Cell Type: Human, Assay Type: Sister-chromatid exchange (SCE) in vitro, Assay Code: SC1+, Evaluation Type: Evaluation B (Post-1980)

For `CC1(C)[C@@H](O[C@H]2O[C@H](C(=O)O)[C@@H](O)[C@H](O)[C@H]2O[C@@H]2O[C@H](C(=O)O)[C@@H](O)[C@H](O)[C@H]2O)CC[C@]2(C)[C@H]3C(=O)C=C4[C@@H]5C[C@@](C)(C(=O)O)CC[C@]5(C)CC[C@@]4(C)[C@]3(C)CC[C@@H]12`, the mutagenic call [1] was “no conclusion”.

With `Cc1c(F)c2ccccc2c2ccc3ccccc3c12` the mutagenic call [2] was “no conclusion”.

`O=S1(=O)OC2(c3ccccc31)c1cc(Br)c(O)c(Br)c1Oc1c2cc(Br)c(O)c1Br` was tested, and the mutagenic call [3] was “active; positive”.

With `O=c1[nH]cccc1[N+](=O)[O-]` the mutagenic call [3] was “active; positive”.

In the case of `O=C([O-])[O-].[Cd+2]`, the mutagenic call [4] is reported as “active; positive”.

With `Cc1cc(O)c2c(c1)C(=O)c1cc(OC3O[C@@H](C)[C@H](O)[C@@H](O)[C@H]3O)cc(O)c1C2=O` (some centres undefined) the mutagenic call [5] was “active; positive”.

`CNC(=O)C(C)SCCSP(=O)(OC)OC` (centres undefined) was tested, and the mutagenic call (Species/Cell Type: Bacillus subtilis (H17 vs M45), Assay Type: Rec-assay, spot test, DNA effects (bacterial DNA repair), Assay Code: REW+, Evaluation Type: Evaluation A (Pre-1980)) was “active; positive”, the mutagenic call (Species/Cell Type: Escherichia coli WP2, Assay Type: Tryptophan reverse gene mutation, Assay Code: WP2+, Evaluation Type: Evaluation A (Pre-1980)) was “active; positive” and the mutagenic call (Species/Cell Type: Escherichia coli WP2 UVRA, Assay Type: Tryptophan reverse gene mutation, Assay Code: WPU+, Evaluation Type: Evaluation A (Pre-1980)) was “active; positive”. For the same molecule, the mutagenic call [6] was “active; positive” and the mutagenic call [3] was “active; positive”.

In the case of `O=C(O)CS`, the mutagenic call [7] is reported as “no conclusion”.

`NC=O` was tested, and the mutagenic call (Species/Cell Type: Fischer rat embryo (RLV/1706) cells, Assay Type: Cell transformation, viral enhanced, Assay Code: CTR-, Evaluation Type: Evaluation A (Pre-1980)) was “inactive; negative” and the mutagenic call (Species/Cell Type: Hordeum vulgare (barley), Assay Type: Chromosome aberrations, Assay Code: HOC+, Evaluation Type: Evaluation A (Pre-1980)) was “active; positive”.

With `CNC=O` the mutagenic call [8] was “inactive; negative”.

In the case of `O=c1[nH]cc(I)c(=O)[nH]1`, the mutagenic call (Species/Cell Type: Vicia faba, Assay Type: Chromosome aberrations, Assay Code: VIC+, Evaluation Type: Evaluation A (Pre-1980)) is reported as “active; positive”.

For `COc1ccc(OC)c(N=Nc2c(O)ccc3ccccc23)c1`, the call [9] was “active; positive” and the mutagenic call (Species/Cell Type: Salmonella typhimurium (one or more of the five standard strains: TA98, TA100, TA1535, TA1537, and TA1538), Assay Type: Histidine reverse gene mutation, Ames assay, Assay Code: SAL-, Evaluation Type: Evaluation A (Pre-1980)) was “inactive; negative”.

In the case of `Cc1ccc2c(ccc3cc4ccccc4cc32)c1`, the mutagenic call (Species/Cell Type: Nonhuman, Assay Type: Sister-chromatid exchange (SCE) in vitro, Assay Code: SC2-, Evaluation Type: Evaluation B (Post-1980)) is reported as “inactive; negative” and the mutagenic call [5] is reported as “active; positive”.

In the case of `O=NN1CCCN(N=O)CC1`, the mutagenic call [5] is reported as “active; positive”.

For `[Cr]`, the call (Species/Cell Type: Nonhuman, Assay Code: CCGT, Evaluation Type: Evaluation A (Pre-1980)) was “no conclusion”.

`CC1CC2OC(=O)C(C)C2CC2(C)C(O)OC(O)CC12` (centres undefined) was tested, and the mutagenic call [3] was “active; positive”.

With `Cn1c(CCCC(=O)O)nc2cc(N(CCCl)CCCl)ccc21` the mutagenic call [6] was “active; positive”.

For `CCN(CCO)CCCNc1c2ccccc2nc2cc3ccccc3cc12`, the mutagenic call (Species/Cell Type: Chinese hamster ovary (CHO) cells, Assay Type: Forward gene mutation at the HPRT locus, Assay Code: CHOT, Evaluation Type: Evaluation B (Post-1980)) was “no conclusion”.

`Cc1ccc(N=Nc2c(O)c(C(=O)O)cc3ccccc23)c(S(=O)(=O)O)c1` was tested, and the mutagenic call [2] was “no conclusion”.

`Cc1ccc2ccc3cc4ccccc4cc3c2c1` was tested, and the mutagenic call [6] was “active; positive” and the mutagenic call [5] was “active; positive”.

In the case of `CCCCNCCCCO`, the mutagenic call (Species/Cell Type: Nonhuman, Assay Type: Chromosome aberrations in vitro, Assay Code: CY&-, Evaluation Type: Evaluation A (Pre-1980)) is reported as “inactive; negative” and the mutagenic call (Species/Cell Type: Nonhuman, Assay Type: Sister-chromatid exchange (SCE) in vitro, Assay Code: SC2T, Evaluation Type: Evaluation A (Pre-1980)) is reported as “no conclusion”.

For `NC(Cc1ccc(N(CCCl)CCCl)cc1)C(=O)O` (centres undefined), the mutagenic call [10] was “active; positive” and the call [9] was “active; positive”.

`CO[C@@H]1[C@@H](OC(N)=O)[C@@H](O)[C@H](Oc2ccc3c(O)c(NC(=O)c4ccc(O)c(CC=C(C)C)c4)c(=O)oc3c2C)OC1(C)C` was tested, and the mutagenic call [4] was “active; positive”.

`COc1ccc2c(c1)c(CC(=O)O)c(C)n2C(=O)c1ccc(Cl)cc1` was tested, and the mutagenic call (Species/Cell Type: Human lymphocytes, Assay Type: Sister-chromatid exchange (SCE) in vivo, Assay Code: SCY+, Evaluation Type: Evaluation B (Post-1980)) was “active; positive”, the mutagenic call [1] was “no conclusion” and the mutagenic call [11] was “active; positive”. For the same molecule, the mutagenic call [12] was “no conclusion”.

For `C#C[C@]1(O)CC[C@H]2[C@@H]3CCc4cc(OC)ccc4[C@H]3CC[C@@]21C`, the call [9] was “active; positive”.

In the case of `C/C=C1/C[C@@H](C)[C@@](C)(O)C(=O)OC/C2=C/CN(C)CC[C@@H](OC1=O)C2=O`, the mutagenic call [6] is reported as “active; positive”.

With `CN(N=O)C(=O)Oc1cccc2c1OC(C)(C)C2` the mutagenic call [6] was “active; positive”.

With `Cn1cc[nH]c1=S` the mutagenic call [7] was “no conclusion”.

In the case of `O=[N+]([O-])c1ccc(-c2nc(N3CCOCC3)c3ccccc3n2)s1`, the mutagenic call [3] is reported as “active; positive”.

With `CS(=O)(=O)OCCCCO` the mutagenic call [10] was “active; positive”.

For `O=NN1CCNC1=O`, the mutagenic call (Species/Cell Type: Arabidopsis species, Assay Type: Gene mutation, Assay Code: ARM+D, Dose Response: With dose response, Evaluation Type: Evaluation A (Pre-1980)) was “active; positive”, the mutagenic call (Species/Cell Type: Saccharomyces cerevisiae, Assay Type: Forward gene mutation, Assay Code: YEF+, Evaluation Type: Evaluation A (Pre-1980)) was “active; positive” and the mutagenic call (Species/Cell Type: Saccharomyces cerevisiae, Assay Type: Mitotic recombination or gene conversion, Assay Code: YEC+, Evaluation Type: Evaluation A (Pre-1980)) was “active; positive”. For the same molecule, the mutagenic call (Species/Cell Type: Saccharomyces cerevisiae, Assay Type: Mitotic recombination or gene conversion, Assay Code: YEH+, Evaluation Type: Evaluation A (Pre-1980)) was “active; positive”, the mutagenic call (Species/Cell Type: Saccharomyces cerevisiae, Assay Type: Reverse gene mutation, Assay Code: YER+, Evaluation Type: Evaluation A (Pre-1980)) was “active; positive” and the mutagenic call [3] was “active; positive”.

With `O=C(O)c1ccc([N+](=O)[O-])o1` the mutagenic call (Species/Cell Type: Bacillus subtilis (H17 vs M45T), Assay Type: Rec-assay, spot test, DNA effects (bacterial DNA repair), Assay Code: REX-, Evaluation Type: Evaluation A (Pre-1980)) was “inactive; negative”, the mutagenic call [8] was “inactive; negative” and the mutagenic call (Species/Cell Type: Escherichia coli WP2 UVRA, Assay Type: Tryptophan reverse gene mutation, Assay Code: WPU-, Evaluation Type: Evaluation A (Pre-1980)) was “inactive; negative”. The mutagenic call [3] was “active; positive”.

With `O[C@H]1[C@H]2c3cc4c(cc3CN3CCC(=C[C@@H]1O)[C@H]23)OCO4` the mutagenic call [11] was “active; positive”.

For `C#C[C@@]1(O)CC[C@@H]2[C@H]3CCC4=CC(=O)CC[C@H]4[C@@H]3CC[C@]21CC`, the mutagenic call (Species/Cell Type: Rabbit, Sex: Male, Assay Type: Sperm morphology, Assay Code: SPR-, Evaluation Type: Evaluation A (Pre-1980)) was “inactive; negative”.

`CC(C)[C@H](NC(=O)[C@H](CCCN=C(N)N)NC(=O)N[C@@H](Cc1ccccc1)C(=O)O)C(=O)N[C@H](C=O)CCCN=C(N)N` ({Phe-CO}-Arg-Val-Arg-aldehyde) was tested, and the mutagenic call [13] was “active; positive”, the mutagenic call (Species/Cell Type: Mouse (C3H/10T1/2) cells, Assay Type: Cell transformation, Assay Code: CTH-, Evaluation Type: Evaluation A (Pre-1980)) was “inactive; negative” and the mutagenic call [12] was “no conclusion”.

With `CCNc1nc(NC(C)(C)C)nc(OC)n1` the mutagenic call (Species/Cell Type: Saccharomyces cerevisiae, Assay Type: Mitotic recombination or gene conversion, Assay Code: YEC-, Evaluation Type: Evaluation A (Pre-1980)) was “inactive; negative”.

In the case of `Oc1cc2ccc3cc4ccccc4c4ccc(c1)c2c34`, the mutagenic call (Species/Cell Type: Chinese hamster lung (V79) cells, Assay Type: Forward gene mutation at the HPRT or ouabain locus, Assay Code: V79-, Evaluation Type: Evaluation A (Pre-1980)) is reported as “inactive; negative”, the call (Species/Cell Type: Nonhuman, Assay Code: CCG+L, Evaluation Type: Evaluation A (Pre-1980)) is reported as “active; positive” and the mutagenic call [5] is reported as “active; positive”.

With `Cc1ccccc1O` the mutagenic call (Species/Cell Type: Allium cepa, Assay Type: Chromosome aberrations, Assay Code: ALCT, Evaluation Type: Evaluation A (Pre-1980)) was “no conclusion”, the mutagenic call (Species/Cell Type: Human lymphocytes, Assay Type: Sister-chromatid exchange (SCE) in vitro, Assay Code: SCLT, Evaluation Type: Evaluation B (Post-1980)) was “no conclusion” and the mutagenic call [13] was “active; positive”. The mutagenic call (Species/Cell Type: Nonhuman, Assay Type: Sister-chromatid exchange (SCE) in vivo, Assay Code: SC3T, Evaluation Type: Evaluation B (Post-1980)) was “no conclusion”.

In the case of `Nc1nc(N)nc(-c2ccc([N+](=O)[O-])o2)n1`, the mutagenic call [3] is reported as “active; positive”.

In the case of `CC(C)(C)Br`, the mutagenic call (Species/Cell Type: Escherichia coli polA (W3119 vs P3478), Assay Type: Rec-assay, DNA effects (bacterial DNA repair), Assay Code: RE1-, Evaluation Type: Evaluation A (Pre-1980)) is reported as “inactive; negative”.

For `O=C(O)[C@@H]1CCCN1[N+](=O)[O-]`, the mutagenic call [2] was “no conclusion”.
